# Assay results as given in ChEMBL document CHEMBL3885861, “Open TG-GATES”.
# Species on record: Rattus norvegicus
# Test: Open TG-GATES - Regimen: Single
# Type: toxicity, organism-based, Sprague-Dawley
# Set-up: regimen Single, gender Male, age 6 weeks
# Details: in vivo, po, 24 h, route gavage; for Bas / Eos / Hb / Ht / Lym / MCH / MCHC / MCV / Mono / Neu / Plat / RBC / Ret / WBC: tissue Blood; for KIDNEY_L / KIDNEY_R / KIDNEY_TOTAL: tissue Kidney; for LIVER: tissue Liver; for A/G / ALP / ALT / AST / BUN / CRE / Ca / Cl / DBIL / GLC / IP / K / Na / PL / RALB / TBIL / TC / TG / TP / gamma-GTP: tissue Plasma
smiles,measurement,setting,value
COc1cc2c(c3oc(=O)c4c(c13)CCC4=O)[C@@H]1C=CO[C@@H]1O2 [AFLATOXIN],TERMINAL_BW,"0 mg/kg, dose level Control",227.2 g
same,Bas,"0 mg/kg, dose level Control",0%
same,Eos,"0 mg/kg, dose level Control",1%
same,Hb,"0 mg/kg, dose level Control",12.7 g/dL
same,Ht,"0 mg/kg, dose level Control",37.5%
same,Lym,"0 mg/kg, dose level Control",79%
same,MCH,"0 mg/kg, dose level Control",20.7 pg
same,MCHC,"0 mg/kg, dose level Control",33.9%
same,MCV,"0 mg/kg, dose level Control",60.9 fL
same,Mono,"0 mg/kg, dose level Control",2.8%
same,Neu,"0 mg/kg, dose level Control",16.2%
same,Plat,"0 mg/kg, dose level Control",118.1 x10_4/uL
same,RBC,"0 mg/kg, dose level Control",616 x10_4/ul
same,Ret,"0 mg/kg, dose level Control",8.7%
same,WBC,"0 mg/kg, dose level Control",76.8 x10_2/uL
same,KIDNEY_L,"0 mg/kg, dose level Control",1 g
same,KIDNEY_R,"0 mg/kg, dose level Control",1 g
same,KIDNEY_TOTAL,"0 mg/kg, dose level Control",2.1 g
same,LIVER,"0 mg/kg, dose level Control",10.9 g
same,A/G,"0 mg/kg, dose level Control",1
same,ALP,"0 mg/kg, dose level Control",1775.8 IU/L
same,ALT,"0 mg/kg, dose level Control",40 IU/L
same,AST,"0 mg/kg, dose level Control",72.2 IU/L
same,BUN,"0 mg/kg, dose level Control",16.5 mg/dL
same,CRE,"0 mg/kg, dose level Control",0.2 mg/dL
same,Ca,"0 mg/kg, dose level Control",10.8 mg/dL
same,Cl,"0 mg/kg, dose level Control",104.1 meq/L
same,DBIL,"0 mg/kg, dose level Control",0.002 mg/dL
same,GLC,"0 mg/kg, dose level Control",189.4 mg/dL
same,IP,"0 mg/kg, dose level Control",7 mg/dL
same,K,"0 mg/kg, dose level Control",4.5 meq/L
same,Na,"0 mg/kg, dose level Control",139.2 meq/L
same,PL,"0 mg/kg, dose level Control",153.4 mg/dL
same,RALB,"0 mg/kg, dose level Control",2.8 g/dL
same,TBIL,"0 mg/kg, dose level Control",0 mg/dL
same,TC,"0 mg/kg, dose level Control",76.2 mg/dL
same,TG,"0 mg/kg, dose level Control",141.9 mg/dL
same,TP,"0 mg/kg, dose level Control",5.7 g/dL
same,gamma-GTP,"0 mg/kg, dose level Control",0.8 IU/L
same,TERMINAL_BW,"1 mg/kg, dose level Low",220.4 g
same,Bas,"1 mg/kg, dose level Low",0%
same,Eos,"1 mg/kg, dose level Low",0.8%
same,Hb,"1 mg/kg, dose level Low",12.8 g/dL
same,Ht,"1 mg/kg, dose level Low",37.6%
same,Lym,"1 mg/kg, dose level Low",74.6%
same,MCH,"1 mg/kg, dose level Low",20.5 pg
same,MCHC,"1 mg/kg, dose level Low",34.2%
same,MCV,"1 mg/kg, dose level Low",60 fL
same,Mono,"1 mg/kg, dose level Low",4.8%
same,Neu,"1 mg/kg, dose level Low",19.2%
same,Plat,"1 mg/kg, dose level Low",127.7 x10_4/uL
same,RBC,"1 mg/kg, dose level Low",627.4 x10_4/ul
same,Ret,"1 mg/kg, dose level Low",8.8%
same,WBC,"1 mg/kg, dose level Low",97.6 x10_2/uL
same,KIDNEY_L,"1 mg/kg, dose level Low",1 g
same,KIDNEY_R,"1 mg/kg, dose level Low",1 g
same,KIDNEY_TOTAL,"1 mg/kg, dose level Low",2 g
same,LIVER,"1 mg/kg, dose level Low",10.2 g
same,A/G,"1 mg/kg, dose level Low",1
same,ALP,"1 mg/kg, dose level Low",1769.4 IU/L
same,ALT,"1 mg/kg, dose level Low",59.6 IU/L
same,AST,"1 mg/kg, dose level Low",97 IU/L
same,BUN,"1 mg/kg, dose level Low",15.7 mg/dL
same,CRE,"1 mg/kg, dose level Low",0.2 mg/dL
same,Ca,"1 mg/kg, dose level Low",10.7 mg/dL
same,Cl,"1 mg/kg, dose level Low",103.9 meq/L
same,DBIL,"1 mg/kg, dose level Low",0.002 mg/dL
same,GLC,"1 mg/kg, dose level Low",171.4 mg/dL
same,IP,"1 mg/kg, dose level Low",7.5 mg/dL
same,K,"1 mg/kg, dose level Low",4.4 meq/L
same,Na,"1 mg/kg, dose level Low",138.8 meq/L
same,PL,"1 mg/kg, dose level Low",150.2 mg/dL
same,RALB,"1 mg/kg, dose level Low",2.8 g/dL
same,TBIL,"1 mg/kg, dose level Low",0 mg/dL
same,TC,"1 mg/kg, dose level Low",84.4 mg/dL
same,TG,"1 mg/kg, dose level Low",93.8 mg/dL
same,TP,"1 mg/kg, dose level Low",5.7 g/dL
same,gamma-GTP,"1 mg/kg, dose level Low",1 IU/L
same,TERMINAL_BW,"3 mg/kg, dose level Middle",219.9 g
same,Bas,"3 mg/kg, dose level Middle",0%
same,Eos,"3 mg/kg, dose level Middle",0.4%
same,Hb,"3 mg/kg, dose level Middle",13.4 g/dL
same,Ht,"3 mg/kg, dose level Middle",39.5%
same,Lym,"3 mg/kg, dose level Middle",74.2%
same,MCH,"3 mg/kg, dose level Middle",20.1 pg
same,MCHC,"3 mg/kg, dose level Middle",33.8%
same,MCV,"3 mg/kg, dose level Middle",59.5 fL
same,Mono,"3 mg/kg, dose level Middle",5.2%
same,Neu,"3 mg/kg, dose level Middle",18.6%
same,Plat,"3 mg/kg, dose level Middle",114.1 x10_4/uL
same,RBC,"3 mg/kg, dose level Middle",663 x10_4/ul
same,Ret,"3 mg/kg, dose level Middle",8.5%
same,WBC,"3 mg/kg, dose level Middle",84.9 x10_2/uL
same,KIDNEY_L,"3 mg/kg, dose level Middle",0.9 g
same,KIDNEY_R,"3 mg/kg, dose level Middle",0.9 g
same,KIDNEY_TOTAL,"3 mg/kg, dose level Middle",1.9 g
same,LIVER,"3 mg/kg, dose level Middle",10.1 g
same,A/G,"3 mg/kg, dose level Middle",1
same,ALP,"3 mg/kg, dose level Middle",1736.6 IU/L
same,ALT,"3 mg/kg, dose level Middle",135 IU/L
same,AST,"3 mg/kg, dose level Middle",232 IU/L
same,BUN,"3 mg/kg, dose level Middle",15.8 mg/dL
same,CRE,"3 mg/kg, dose level Middle",0.2 mg/dL
same,Ca,"3 mg/kg, dose level Middle",10.7 mg/dL
same,Cl,"3 mg/kg, dose level Middle",105.1 meq/L
same,DBIL,"3 mg/kg, dose level Middle",0.012 mg/dL
same,GLC,"3 mg/kg, dose level Middle",167.8 mg/dL
same,IP,"3 mg/kg, dose level Middle",8.1 mg/dL
same,K,"3 mg/kg, dose level Middle",4.4 meq/L
same,Na,"3 mg/kg, dose level Middle",139.3 meq/L
same,PL,"3 mg/kg, dose level Middle",168 mg/dL
same,RALB,"3 mg/kg, dose level Middle",2.7 g/dL
same,TBIL,"3 mg/kg, dose level Middle",0.01 mg/dL
same,TC,"3 mg/kg, dose level Middle",84.4 mg/dL
same,TG,"3 mg/kg, dose level Middle",112.4 mg/dL
same,TP,"3 mg/kg, dose level Middle",5.5 g/dL
same,gamma-GTP,"3 mg/kg, dose level Middle",1.5 IU/L
same,TERMINAL_BW,"10 mg/kg, dose level High",214.9 g
same,Bas,"10 mg/kg, dose level High",0%
same,Eos,"10 mg/kg, dose level High",0.6%
same,Hb,"10 mg/kg, dose level High",14 g/dL
same,Ht,"10 mg/kg, dose level High",40.8%
same,Lym,"10 mg/kg, dose level High",47.8%
same,MCH,"10 mg/kg, dose level High",20.7 pg
same,MCHC,"10 mg/kg, dose level High",34.3%
same,MCV,"10 mg/kg, dose level High",60.5 fL
same,Mono,"10 mg/kg, dose level High",2.8%
same,Neu,"10 mg/kg, dose level High",47%
same,Plat,"10 mg/kg, dose level High",104.8 x10_4/uL
same,RBC,"10 mg/kg, dose level High",674.6 x10_4/ul
same,Ret,"10 mg/kg, dose level High",8.4%
same,WBC,"10 mg/kg, dose level High",101.9 x10_2/uL
same,KIDNEY_L,"10 mg/kg, dose level High",1 g
same,KIDNEY_R,"10 mg/kg, dose level High",1 g
same,KIDNEY_TOTAL,"10 mg/kg, dose level High",2 g
same,LIVER,"10 mg/kg, dose level High",9 g
same,A/G,"10 mg/kg, dose level High",1
same,ALP,"10 mg/kg, dose level High",2013.2 IU/L
same,ALT,"10 mg/kg, dose level High",292.6 IU/L
same,AST,"10 mg/kg, dose level High",630.8 IU/L
same,BUN,"10 mg/kg, dose level High",19.7 mg/dL
same,CRE,"10 mg/kg, dose level High",0.2 mg/dL
same,Ca,"10 mg/kg, dose level High",10.7 mg/dL
same,Cl,"10 mg/kg, dose level High",103.7 meq/L
same,DBIL,"10 mg/kg, dose level High",0.094 mg/dL
same,GLC,"10 mg/kg, dose level High",153.2 mg/dL
same,IP,"10 mg/kg, dose level High",9.1 mg/dL
same,K,"10 mg/kg, dose level High",4.1 meq/L
same,Na,"10 mg/kg, dose level High",138.9 meq/L
same,PL,"10 mg/kg, dose level High",158.2 mg/dL
same,RALB,"10 mg/kg, dose level High",2.8 g/dL
same,TBIL,"10 mg/kg, dose level High",0.1 mg/dL
same,TC,"10 mg/kg, dose level High",87.4 mg/dL
same,TG,"10 mg/kg, dose level High",32.9 mg/dL
same,TP,"10 mg/kg, dose level High",5.6 g/dL
same,gamma-GTP,"10 mg/kg, dose level High",2.9 IU/L
